Test results reported in patent US11872260B2, “Mint essential oils inhibit HRASQ61L mutant keratinocyte activity and prevent skin carcinogenesis” (ACADEMIA SINICA, priority 2018, dated 2024).

Key:
B16 melanoma cells = assay: Depigmentation assay (melanin absorbance 405 nm); type: cell-based, Murine; conditions: 24 h; 15 and 25 μg/mL LM-EO, 100 μg/mL KA
Procedure: B16 cells (1×10^6 cells/15-cm dish) were treated with vehicle (0.5% DMSO), 15 and 25 μg/mL LM-EO (LM15 and LM25), or 100 μg/mL kojic acid (KA100) for 6, 12, 24 h. After washing with PBS for two times, the cells were harvested by cell scrapper and centrifugation. The cell pellets were then taken a photo before dissolved in 1 N NaOH at 60° C. for 1 h. The volume of NaOH used to dissolve the cell pellets were adjusted based on the cell populations to yield the equal concentration. The absorbance was then measured at 405 nm.

tyrosinase in B16 cells = assay: Western blot of tyrosinase in B16 cells; type: cell-based, Murine; conditions: 6, 12, 24 h
Procedure: (§1) Cells were treated with EOs or compounds at the indicated concentrations and lysed in RIPA lysis buffer. Protein concentrations were measured by DC protein assay (Bio-Rad, United States). Western blotting was performed as described by Shyur et al. Protein samples were separated by 10 or 12% SDS-PAGE, and electro-transferred onto PVDF membranes (Merck Millipore, United States). The membranes were blocked with 5% skimmed milk in TBST for 1 h at room temperature. After washing the membranes three times with TBST, membranes were incubated with appropriate primary antibodies overnight (12-16 h) at 4° C. The membranes were washed with TBST three times, followed by incubation with horseradish peroxidase (HRP)-conjugated anti-mouse IgG or anti-rabbit IgG secondary antibodies for 2 h at room temperature. Reactive protein bands were visualized using enhanced chemiluminescent detection reagents (GE Healthcare, United States) and exposed to chemiluminescence light film (GE Healthcare, United States). The expression levels of targeted proteins were quantified by ImageJ software (National Institutes of Health, United States).

cdc2 in PDV cells = assay: Western blot p-cdc2/cdc2; type: cell-based, mouse; conditions: 24 h; KWM-EO 75 μg/mL, LM-EO 75 μg/mL, L+C 60 μg/mL, PLX4032 0.5 μM, each alone
Procedure: as §1

[1] = tested on: DMBA/TPA/PLX4032-induced skin papilloma; assay: Two-stage skin carcinogenesis, DMBA/TPA accelerated by PLX4032; type: in vivo, FVB/NJNarl mice
Procedure: Female FVB/NJNarl mice (5-6 weeks old) were randomized into 9 groups, each group contained 8 mice. Mice had their back hair shaved three days before topical application of 25 μg 7,12-dimethylbenz[a]anthracene (DMBA) in 200 μL acetone. The first week after tumor initiation, 4 μg of 12-O-tetradecanoylphorbol-13-acatate (TPA) in 200 μL acetone was topically applied twice a week to the shaved back skin for 12 weeks. Mice were treated with the indicated concentrations of mint EOs or compounds (in 200 μL acetone) twice a week by topical application the day after TPA treatment for 12 weeks. Tumor size of more than 1 mm diameter was counted every week. After mice were sacrificed, internal organs (heart, liver, spleen, lung, and kidneys), serum, skin and papillomas were collected and fixed with 10% formalin or stored at −80° C.

[2] = tested on: epidermis of mouse dorsal skin; assay: Histopathology (H&E) of mouse skin from two-stage skin carcinogenesis; type: in vivo, FVB mice; conditions: intraperitoneal PLX4032 in DMBA/TPA skin
patients = patients treated with PLX4032; cited from earlier work

Row | SMILES | depigmentation effect (melanin) (B16 melanoma cells) | tyrosinase expression (tyrosinase in B16 cells) | ratio of phospho-cdc2 to cdc2, increase vs vehicle (cdc2 in PDV cells) | swelling of the spleen, effect of PLX4032 ([1]; PLX4032 in DMBA/TPA mice) | tumor multiplicity, effect of PLX4032 on DMBA/TPA mice ([1]; intraperitoneal PLX4032) | proliferation and hyperplasia of the epidermis, effect of PLX4032 [2] | patients developing squamous cell carcinoma (SCC) and keratoacanthoma (KA) (patients)
1 | O=c1cc(CO)occ1O [KA, Kojic acid] | depigmentation effect with statistical significance | time-dependently inhibited tyrosinase expression |  |  |  |  | 
2 | CCCS(=O)(=O)Nc1ccc(F)c(C(=O)c2c[nH]c3ncc(-c4ccc(Cl)cc4)cc23)c1F [PLX4032, vemurafenib] |  |  | 2.1 fold | exacerbated the swelling of the spleen | greatly increased the tumor multiplicity | exacerbated the proliferation and hyperplasia of the epidermis | 20-30%
